Assay results published in patent publication US20110077248A1, “IMIDAZOPYRIDINE AND RELATED ANALOGS AS SIRTUIN MODULATORS” (Sirtris Pharmaceuticals, Inc., priority 2008, published 2011).

Biological target: T1, SIRT1 (Homo sapiens, UniProt Q96EB6)
T1 construct: His-tag (N); made in house; host or cells: E. coli BL21(DE3), T7-promoter vector
T1 sequence (Q96EB6 1-747): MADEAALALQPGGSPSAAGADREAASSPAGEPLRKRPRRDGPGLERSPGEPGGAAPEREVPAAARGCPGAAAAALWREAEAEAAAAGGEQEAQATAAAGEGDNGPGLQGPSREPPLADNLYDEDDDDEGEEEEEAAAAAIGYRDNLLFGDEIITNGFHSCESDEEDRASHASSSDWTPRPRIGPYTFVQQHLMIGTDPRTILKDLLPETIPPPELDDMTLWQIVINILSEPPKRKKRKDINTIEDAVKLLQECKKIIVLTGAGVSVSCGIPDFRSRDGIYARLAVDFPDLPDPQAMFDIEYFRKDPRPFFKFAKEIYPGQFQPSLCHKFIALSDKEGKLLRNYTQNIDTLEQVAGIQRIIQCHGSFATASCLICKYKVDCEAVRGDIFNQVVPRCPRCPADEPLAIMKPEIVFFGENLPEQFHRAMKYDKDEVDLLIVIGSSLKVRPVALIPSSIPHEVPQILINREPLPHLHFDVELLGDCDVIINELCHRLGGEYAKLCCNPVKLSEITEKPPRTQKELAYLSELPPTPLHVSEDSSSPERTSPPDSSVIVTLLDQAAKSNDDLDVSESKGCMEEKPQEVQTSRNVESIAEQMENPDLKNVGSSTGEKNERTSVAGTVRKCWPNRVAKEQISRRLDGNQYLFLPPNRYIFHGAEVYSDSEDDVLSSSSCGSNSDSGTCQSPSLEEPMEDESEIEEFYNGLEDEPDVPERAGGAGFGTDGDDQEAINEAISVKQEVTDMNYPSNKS
Experiment: Mass spectrometry based assay for modulators of SIRT1 activity (deacetylation of p53-based acetylated peptide)
Type: biochemical
Settings: for EC1.5: concentration of test compound that results in 150% activation of SIRT1, 0.5 μM peptide substrate, 120 μM βNAD+, 10 nM SIRT1, 25 min, 25° C.; for Emax: percent maximum fold activation of SIRT1
Outline: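 Reaction: 10 nM His-tagged human SIRT1 (E. coli-expressed) with 0.5 μM 5TMR-labelled acetylated p53-derived peptide and 120 μM NAD+, 25 min at 25 °C, pH 8 Tris-acetate buffer; formic acid quench. Deacetylation quantified by mass spectrometry against a DMSO control; EC1.5 = concentration giving 150% activation.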

| SMILES | EC1.5 | Emax [%] |
| --- | --- | --- |
| O=C(Nc1cccn2cc(-c3cccc(C(F)(F)F)c3)nc12)c1cscn1 [Compound 117] | B (EC1.5 1-25 uM) | < 200 |
| O=C(Nc1ccccn1)c1cccn2cc(-c3ccc(N4CCOCC4)cc3)nc12 [Compound 184] | C (EC1.5>25 uM) | < 200 |
| O=C(Nc1cccc(CN2CCOCC2)n1)c1cccn2cc(-c3ccc(F)c(F)c3)nc12 [Compound 195] | B (EC1.5 1-25 uM) | > 200 |
| O=C(Nc1ncc(CN2CCOCC2)s1)c1cccn2cc(-c3cccc(C(F)(F)F)c3)nc12 [Compound 134, N-(5-(morpholinomethyl)thiazol-2-yl)-2-(3-(trifluoromethyl)phenyl)imidazo[1,2-a]pyridine-8-carboxamide] | A (EC1.5<1.0 uM) | > 200 |
| O=C(Nc1cccc(CN2CCOCC2)n1)c1cccn2cc(-c3cc(F)ccc3F)nc12 [Compound 201] | A (EC1.5<1.0 uM) | > 200 |
| O=C(Nc1cnccn1)c1cccn2cc(-c3cccc(C(F)(F)F)c3)nc12 [Compound 118] | B (EC1.5 1-25 uM) | < 200 |
| O=C(Nc1cccc(CN2CCOCC2)n1)c1cccn2cc(-c3cc(F)cc(F)c3)nc12 [Compound 193] | A (EC1.5<1.0 uM) | > 200 |
| O=C(Nc1ccccc1)c1cccn2cc(-c3cccc(C(F)(F)F)c3)nc12 [Compound 113, N-phenyl-2-(3-(trifluoromethyl)phenyl)imidazo[1,2-a]pyridine-8-carboxamide] | C (EC1.5>25 uM) | < 200 |
| O=C(Nc1nc(CN2CCOCC2)cs1)c1cccn2cc(-c3cc(F)c(F)c(F)c3)nc12 [Compound 196] | B (EC1.5 1-25 uM) | < 200 |
| O=C(Nc1ccccn1)c1nccn2cc(-c3cccc(OC(F)(F)F)c3)nc12 [Compound 143] | C (EC1.5>25 uM) | < 200 |
| O=C(Nc1nc(CN2CCOCC2)cs1)c1nccn2cc(-c3ccc(F)c(F)c3)nc12 [Compound 194] | B (EC1.5 1-25 uM) | > 200 |
| Cc1ccc(-c2cn3ccnc(C(=O)Nc4ccccn4)c3n2)cn1 [Compound 163] | B (EC1.5 1-25 uM) | < 200 |
| O=C(Nc1nc(CN2CCOCC2)cs1)c1cccn2cc(-c3cccc(OC(F)(F)F)c3)nc12 [Compound 133] | A (EC1.5<1.0 uM) | > 200 |

Other lines, results leading:

| EC1.5 | Emax [%] | SMILES |
| --- | --- | --- |
| A (EC1.5<1.0 uM) | > 200 | O=C(Nc1cccc(CN2CCOCC2)n1)c1cccn2cc(-c3ccc(F)c(Cl)c3)nc12 [Compound 236] |
| C (EC1.5>25 uM) | < 200 | O=C(Nc1ccccn1)c1cccn2cc(-c3ccc(C(F)F)cc3)nc12 [Compound 203] |
| C (EC1.5>25 uM) | < 200 | Cc1ccc(-c2nc3c(C(=O)Nc4nccs4)cccn3n2)cn1 [Compound 210, 2-(6-methylpyridin-3-yl)-N-(thiazol-2-yl)-[1,2,4]triazolo[1,5-a]pyridine-8-carboxamide] |
| A (EC1.5<1.0 uM) | > 200 | O=C(Nc1nccs1)c1cccn2nc(-c3ccc(N4CCOCC4)cc3C(F)(F)F)nc12 [Compound 219, 2-(4-morpholino-2-(trifluoromethyl)phenyl)-N-(thiazol-2-yl)-[1,2,4]triazolo[1,5-a]pyridine-8-carboxamide] |
| A (EC1.5<1.0 uM) | > 200 | O=C(Nc1ccncn1)c1nccn2cc(-c3ccc(F)cc3C(F)(F)F)nc12 [Compound 246] |
| A (EC1.5<1.0 uM) | > 200 | O=C(Nc1cccc(CN2CCOCC2)n1)c1nccn2cc(-c3ccc(F)cc3C(F)(F)F)nc12 [Compound 261] |
| C (EC1.5>25 uM) | < 200 | Cc1nc(C)c(-c2nc3c(C(=O)Nc4nccs4)cccn3n2)s1 [Compound 229] |
| B (EC1.5 1-25 uM) | > 200 | Cc1cc(-c2nc3c(C(=O)Nc4nccs4)cccn3n2)ccn1 [Compound 214, 2-(2-methylpyridin-4-yl)-N-(thiazol-2-yl)-[1,2,4]triazolo[1,5-a]pyridine-8-carboxamide] |
